Assay results published in ChEMBL document CHEMBL5143617 (Eur J Med Chem, 2022).
Converted amounts (≈) assume the structure as drawn. The source made the active and inactive calls. The rule behind the calls is not given here.

Tests used:
[1] = biological target: T1, 5-hydroxytryptamine receptor 1A (Homo sapiens, UniProt P08908); assay: Agonist activity at human 5-HT1A receptor expressed in CHO-K1 cells assessed as stimulation of ERK1/2 phosphorylation incubated for 15 mins by Alpha LISA assay; type: functional, cell-based
T1 sequence (P08908 whole entry): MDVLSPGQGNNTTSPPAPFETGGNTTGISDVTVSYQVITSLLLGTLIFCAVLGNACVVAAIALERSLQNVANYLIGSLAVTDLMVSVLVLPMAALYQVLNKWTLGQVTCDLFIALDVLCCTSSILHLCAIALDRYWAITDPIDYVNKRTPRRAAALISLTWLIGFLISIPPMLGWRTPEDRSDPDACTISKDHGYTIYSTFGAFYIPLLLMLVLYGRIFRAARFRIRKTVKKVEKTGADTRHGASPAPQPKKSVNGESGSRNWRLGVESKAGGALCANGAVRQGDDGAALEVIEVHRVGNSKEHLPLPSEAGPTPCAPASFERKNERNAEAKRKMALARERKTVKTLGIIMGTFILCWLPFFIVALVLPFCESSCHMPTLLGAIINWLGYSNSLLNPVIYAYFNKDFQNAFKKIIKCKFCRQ

[2] = system: Erythrocyte; assay: Hemolytic activity in human erythrocytes at 10^-6 to 10^-5 M after 30 mins by spectrophotometry; type: toxicity, cell-based; settings: 0.5 h, dose lower 1e-06 µmol/L, dose upper 1e-05 µmol/L
[3] = biological target: cAMP and cAMP-inhibited cGMP 3',5'-cyclic phosphodiesterase 10A (Homo sapiens, UniProt Q9Y233); assay: Inhibition of PDE10A (unknown origin) at 10 uM preincubated for 20 mins followed by substrate addition and measured after 1 hr by PEDlight AMP detection reagent based luminescence assay relative to control; settings: time 80.0 min
cAMP and cAMP-inhibited cGMP 3',5'-cyclic phosphodiesterase 10A, sequence (Q9Y233 whole entry): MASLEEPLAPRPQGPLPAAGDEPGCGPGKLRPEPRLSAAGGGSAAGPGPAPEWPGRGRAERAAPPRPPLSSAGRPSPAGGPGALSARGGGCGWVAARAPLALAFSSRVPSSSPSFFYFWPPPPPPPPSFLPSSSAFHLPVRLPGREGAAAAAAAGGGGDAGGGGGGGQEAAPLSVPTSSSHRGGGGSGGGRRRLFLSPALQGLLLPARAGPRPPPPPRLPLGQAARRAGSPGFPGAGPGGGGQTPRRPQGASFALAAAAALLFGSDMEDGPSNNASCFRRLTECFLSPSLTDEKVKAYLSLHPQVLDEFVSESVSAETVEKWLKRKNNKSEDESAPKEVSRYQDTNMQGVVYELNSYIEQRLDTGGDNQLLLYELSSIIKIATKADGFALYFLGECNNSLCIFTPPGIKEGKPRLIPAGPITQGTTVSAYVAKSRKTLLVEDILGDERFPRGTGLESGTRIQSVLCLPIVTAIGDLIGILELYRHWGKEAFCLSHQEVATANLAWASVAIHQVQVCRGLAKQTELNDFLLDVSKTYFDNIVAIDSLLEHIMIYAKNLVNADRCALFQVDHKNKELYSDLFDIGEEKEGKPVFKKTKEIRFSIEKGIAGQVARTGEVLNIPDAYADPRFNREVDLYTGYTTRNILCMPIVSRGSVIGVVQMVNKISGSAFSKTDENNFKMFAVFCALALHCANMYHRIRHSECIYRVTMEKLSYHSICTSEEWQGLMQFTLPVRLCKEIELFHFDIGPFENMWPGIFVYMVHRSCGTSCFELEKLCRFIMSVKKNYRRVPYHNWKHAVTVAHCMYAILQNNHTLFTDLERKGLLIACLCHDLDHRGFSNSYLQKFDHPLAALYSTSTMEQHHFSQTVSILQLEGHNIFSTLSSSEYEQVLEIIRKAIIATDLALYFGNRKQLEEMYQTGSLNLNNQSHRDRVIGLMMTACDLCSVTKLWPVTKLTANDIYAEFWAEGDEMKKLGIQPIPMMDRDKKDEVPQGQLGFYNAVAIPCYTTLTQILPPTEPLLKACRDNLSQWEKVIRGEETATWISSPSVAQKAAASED

[4] = biological target: 5-hydroxytryptamine receptor 6 (Homo sapiens) (UniProt P50406); assay: Inhibition of 5-HT6 receptor (unknown origin); settings: concentration not given here
5-hydroxytryptamine receptor 6 (Homo sapiens), sequence (P50406 whole entry): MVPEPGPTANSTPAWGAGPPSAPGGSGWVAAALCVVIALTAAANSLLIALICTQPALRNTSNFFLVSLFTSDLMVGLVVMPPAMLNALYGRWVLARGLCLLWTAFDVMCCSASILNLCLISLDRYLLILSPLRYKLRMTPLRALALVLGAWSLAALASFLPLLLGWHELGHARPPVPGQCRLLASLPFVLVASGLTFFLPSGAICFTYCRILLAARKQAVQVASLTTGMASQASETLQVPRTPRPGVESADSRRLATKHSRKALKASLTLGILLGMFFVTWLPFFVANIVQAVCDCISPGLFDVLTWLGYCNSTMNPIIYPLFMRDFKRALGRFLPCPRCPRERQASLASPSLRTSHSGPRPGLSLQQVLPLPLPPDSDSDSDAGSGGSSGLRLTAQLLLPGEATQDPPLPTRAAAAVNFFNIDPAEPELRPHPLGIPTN

[5] = Ratio of drug concentration in Hippocampus to plasma in mouse at 0.625 mg/kg, ip by LC/ESI-MS/MS analysis; type: ADME, organism-based; settings: hippocampus and plasma
[6] = Metabolic stability in human liver microsomes assessed as half life
[7] = Ratio of drug concentration in striatum to plasma in mouse at 0.625 mg/kg, ip by LC/ESI-MS/MS analysis; type: ADME, organism-based; settings: striatum and plasma
[8] = Tmax in mouse plasma at 0.625 mg/kg, ip measured up to 480 mins by LC/ESI-MS/MS analysis; type: ADME, organism-based
[9] = Aqueous solubility of compound in simulated intestinal fluid by UV absorbance based analysis; type: physicochemical
[10] = Aqueous solubility of compound in PBS buffer at pH 7.4 by UV absorbance based analysis; type: physicochemical
[11] = Tmax in mouse striatum at 0.625 mg/kg, ip by LC/ESI-MS/MS analysis; type: ADME, organism-based
[12] = system: Mus musculus; assay: Antipsychotic activity in CD-1 mouse assessed as inhibition of amphetamine-stimulated locomotor activity at 5 mg/kg, ip administered 30 mins prior to amphetamine stimulation and measured after 30 mins; type: functional, organism-based; settings: time 60.0 min
[13] = Metabolic stability in human liver microsomes assessed as intrinsic clearance
[14] = biological target: T1, 5-hydroxytryptamine receptor 1A; assay: Displacement of [3H]-[…] from human 5-HT1A receptor expressed in CHO-K1 cells membrane by scintillation counter analysis; type: cell membranes
[15] = biological target: T1, 5-hydroxytryptamine receptor 1A; assay: Agonist activity at human 5-HT1A receptor expressed in U2OS cells assessed as beta-arrestin recruitment incubated for 5 hrs by Tango assay; type: functional, cell-based
[16] = Efflux ratio of apparent permeability across basolateral to apical membrane to apical to basolateral membrane in human Caco-2 cells; type: ADME, cell-based
[17] = Cmax in mouse plasma at 0.625 mg/kg, ip measured up to 480 mins by LC/ESI-MS/MS analysis; type: ADME, organism-based; parameters: time < 480 min, dose 0.625 mg/kg, route ip

EC50 [1]: 4.79 µM
inhibition [3]: 21%
inhibition [4]: 8%
Kp [5]: 85.4
half-life [6]: 49 min
Kp [7]: 87.4
Tmax [8]: 5 min
solubility [9]: 181 µM (≈ 84.7 µg/mL)
solubility [10]: 187 µM (≈ 87.5 µg/mL)
Tmax [11]: 30 min
microsomal CLint [13]: 75.8 µL/min/mg
Ki [14]: 0.363 µM
EC50 [15]: 12 µM
efflux ratio [16]: 0.19
Cmax [17]: 4.1 ng/mL
Compound: COc1cc2ncnc(N3CCC(CN4CCN(c5ccc(Cl)cc5)CC4)C3)c2cc1OC (configuration not stated)
Activity [2]: Non-Toxic
Activity [12]: Active
